Results published in US20240325544A1, “CATIONIC LIPID FOR COVALENT MODIFICATION OF PEPTIDES” (PharmalN Corporation, priority 2023, published 2024).
Like-named read-outs stand apart in the source and are kept apart here. Marks after values point to notes of the source that are not given here. Bridge positions count the residues as written; N and C are the ends. Square brackets hold non-standard residues; d marks the D form. Peptide text beside a SMILES is read from it. * marks the point of attachment. C18 diacid = O=C(O)CCCCCCCCCCCCCCCCC(=O)*; Stearoyl = CCCCCCCCCCCCCCCCCC(=O)*; Palmitoyl = CCCCCCCCCCCCCCCC(=O)*; Dab = NCC[C@H](N)C(=O)O; Dap = NC[C@H](N)C(=O)O; AEEA = NCCOCCOCC(=O)O; GABA = NCCCC(=O)O

How the values were obtained:
Sprague Dawley rats = test: Clinically observable adverse effects of cationic alkyl moieties after subcutaneous bolus in rats (Table 1); format: in vivo, rat; conditions: tested at 3.0, 5.0 or 10 μmol/kg; for Ataxia** in n = 3: ataxia is bolus dose limiting toxicity; for Swelling and/or Discoloration in n = 3: dose at which sign was seen
Method: (§1) Drug administration and observation: Each rat received a subcutaneous injection of a cationic alkyl modifier (SEQ ID NO: 1-22; listed in Table 1 below) in a buffer of sterile water adjusted to a pH between 4.5-5, with an initial bolus dose of 5.0 μmol/kg and an injection volume of 1.0 mL/kg. The bolus dose level was adjusted based on observations, and animals were monitored closely for lethargy, ataxia, swelling, or discoloration during the first 4 hours post-injection and hourly thereafter. As used herein, “ataxia” means a clinical sign observed as poor muscle control that causes clumsy voluntary movements. It may cause difficulty with mobility, coordination, and eye movements. As used herein, “lethargy” means a clinical sign observed as inability or unwillingness to resume normal activity characterized by exploring and alertness. Lethargic rats are easily observed by displaying little to no activity and/or unwillingness to explore around, half closed eyes, and hunched posture. As used herein, “swelling” means a clinical sign observed as the enlargement or engorgement of body parts with blood or fluid and is associated with visible redness (discoloration). If no swelling occurred, dose level was increased to 10 μmol/kg; if swelling was present, bolus dose level was decreased to 3.0 μmol/kg. A wash-out period of 1 week was allowed between bolus doses, and animals were humanely euthanized through CO2 asphyxiation after final observation.

[1] = as above; format: in vivo, rat; conditions: male, Sprague-Dawley, rat, in vivo, sc, tested at 3.0, 5.0 or 10 μmol/kg, lethargy is considered maximum tolerated bolus dose, read-out: Lethargy* in n = 3
Method: as §1

[2] = Plasma concentration of respective natriuretic peptide by ELISA after SC bolus in CD-1 mice (pharmacokinetics, Table 3); conditions: male, CD-1, mouse, in vivo
Method: (§2) The test articles were formulated or dissolved in sterile water for injection on the same day of administration. […] Blood samples were collected via retro-orbital bleed at 2- and 6-hours post-injection, with two bleedings per animal at two different timepoints. The samples were collected in K2EDTA tubes, processed by centrifugation (2000×g; 15 m 4 eC within 30 minutes after collection), and the resulting plasma samples were stored at −80° C. Biochemical analysis: The plasma concentration of the respective natriuretic peptide was analyzed using commercially available ELISA kits from Phoenix Pharmaceuticals (Burlingame, CA): ANP ELISA (cat #EKE-005-06), BNP ELISA (cat #EKE-011-03), and CNP ELISA (cat #EKE-012-03). […] Plasma cGMP was analyzed using a commercially available kit from Abcam (ab133052, Waltham, MA).

cGMP = test: Plasma cGMP after SC bolus of natriuretic peptides in CD-1 mice (pharmacodynamics, Table 3); format: in vivo; conditions: SC bolus 1.0 mg/kg (≤0.45 μmol/kg), baseline 10 +/−8 pmol/ml, n = 3-5
Method: as §2

SMILES	Ataxia** in n = 3 (Sprague Dawley rats) [µmol/kg]	Swelling and/or Discoloration in n = 3 (Sprague Dawley rats) [µmol/kg]	MTD [1] [µmol/kg]	also measured
CCCCCCCCCCCCCCCC(=O)NCCCC(=O)NCCCC(=O)N[C@@H](CCN)C(=O)N[C@@H](CCN)C(=O)O [SEQ ID NO: 11, CH3(CH2)14(C═O)-γAbu-γAbu-Dab-Dab] ({Palmitoyl-GABA-GABA}-[Dab]-[Dab]-OH; C-terminus assumed)	>10	>10	> 10	
CCCCCCCCCCCCCCCC(=O)NCCOCCOCC(=O)NCCOCCOCC(=O)N[C@@H](CCCCN)C(=O)N[C@@H](CCCCN)C(=O)O [SEQ ID NO: 5, CH3(CH2)14(C═O)-Aeea-Aeea-KK]	≥5		≥ 5	
CCCCCCCCCCCCCCCC(=O)NCCOCCOCC(=O)NCCOCCOCC(=O)NCCOCCOCC(=O)N[C@@H](CCN)C(=O)N[C@@H](CCN)C(=O)N[C@@H](CCN)C(=O)O [SEQ ID NO: 9, CH3(CH2)14(C═O)-Aeea-Aeea-Aeea-Dab-Dab-Dab] ({Palmitoyl-AEEA-AEEA-AEEA}-[Dab]-[Dab]-[Dab]-OH; C-terminus assumed)	>5	≥3	> 5	
NCC[C@H](NC(=O)[C@H](CCN)NC(=O)COCCOCCNC(=O)COCCOCCNC(=O)CCCCCCCCCCCCCCCCC(=O)O)C(=O)O [SEQ ID NO: 21, (HOOC)(CH2)16(C═O)-Aeea-Aeea-Dab-Dab] ({C18 diacid-AEEA-AEEA}-[Dab]-[Dab]-OH; C-terminus assumed)	>10	>10	> 10	
CCCCCCCCCCCCCCCC(=O)NCCOCCOCC(=O)NCCOCCOCC(=O)N[C@@H](CCCCN)C(=O)N[C@@H](CCCCN)C(=O)N[C@@H](CCCCN)C(=O)N[C@@H](CCCCN)C(=O)O [SEQ ID NO: 4, CH3(CH2)14(C═O)-Aeea-Aeea-KKKK] ({Palmitoyl-AEEA-AEEA}-KKKK-OH; C-terminus assumed)	≥3	≥3	≥ 3	
CCCCCCCCCCCCCCCC(=O)NCCCC(=O)NCCCC(=O)NCCCC(=O)N[C@@H](CCN)C(=O)N[C@@H](CCN)C(=O)O [SEQ ID NO: 12, CH3(CH2)14(C═O)-γAbu-γAbu-γAbu-Dab-Dab] ({Palmitoyl-GABA-GABA-GABA}-[Dab]-[Dab]-OH; C-terminus assumed)	>10	>10	> 10	
CCCCCCCCCCCCCCCC(=O)NCCOCCOCC(=O)NCCOCCOCC(=O)NCCOCCOCC(=O)N[C@H](CCCCN)C(=O)N[C@@H](CCCCN)C(=O)O [SEQ ID NO: 1, CH3(CH2)14(C═O)-Aeea-Aeea-Aeea-kK]	≥3	≥3	≥ 3	
CCCCCCCCCCCCCCCC(=O)NCCOCCOCC(=O)NCCOCCOCC(=O)N[C@@H](CN)C(=O)N[C@@H](CCN)C(=O)O [SEQ ID NO: 13, CH3(CH2)14(C═O)-Aeea-Aeea-Dap-Dab] ({Palmitoyl-AEEA-AEEA}-[Dap]-[Dab]-OH; C-terminus assumed)	>10	>10	> 10	
CCCCCCCCCCCCCCCCCC(=O)N[C@@H](CCCCN)C(=O)N[C@@H](CCCCN)C(=O)N[C@@H](CCCCN)C(=O)N[C@@H](CCCCN)C(=O)NCC(=O)NCC(=O)NCC(=O)O [SEQ ID NO: 2, CH3(CH2)16(C═O)-KKKKGGG] (Stearoyl-KKKKGGG-OH; C-terminus assumed)		≥3	≥ 3	
NCC[C@H](NC(=O)[C@H](CCN)NC(=O)COCCOCCNC(=O)COCCOCCNC(=O)COCCOCCNC(=O)CCCCCCCCCCCCCCCCC(=O)O)C(=O)O [SEQ ID NO: 18, (HOOC)(CH2)16(C═O)-Aeea-Aeea-Aeea-Dab-Dab] ({C18 diacid-AEEA-AEEA-AEEA}-[Dab]-[Dab]-OH; C-terminus assumed)	>10	>10	> 10	
CCCCCCCCCCCCCCCC(=O)N[C@@H](CCC(=O)O)C(=O)NCCOCCOCC(=O)NCCOCCOCC(=O)N[C@@H](CCN)C(=O)N[C@@H](CCN)C(=O)O [SEQ ID NO: 16, CH3(CH2)14(C═O)-E-Aeea-Aeea-Dab-Dab] (Palmitoyl-E[AEEA][AEEA][Dab][Dab]-OH; C-terminus assumed)	>10	>10	> 10	
CCCCCCCCCCCCCCCC(=O)NCCOCCOCC(=O)NCCOCCOCC(=O)NCCOCCOCC(=O)N[C@@H](CN)C(=O)N[C@@H](CN)C(=O)N[C@@H](CN)C(=O)N[C@@H](CN)C(=O)O [SEQ ID NO: 22, CH3(CH2)14(C═O)-Aeea-Aeea-Aeea-Dap-Dap-Dap-Dap] ({Palmitoyl-AEEA-AEEA-AEEA}-[Dap][Dap][Dap][Dap]-OH; C-terminus assumed)	>10	>10	> 10	
CCCCCCCCCCCCCCCC(=O)NCCOCCOCC(=O)NCCOCCOCC(=O)NCCOCCOCC(=O)N[C@@H](CN)C(=O)NCC(=O)N[C@@H](CC(C)C)C(=O)N[C@@H](CO)C(=O)N[C@@H](CCCCN)C(=O)NCC(=O)N[C@H]1CSSC[C@@H](C(=O)O)NC(=O)CNC(=O)[C@H](CC(C)C)NC(=O)CNC(=O)[C@H](CO)NC(=O)[C@H](CCC(N)=O)NC(=O)[C@H](CO)NC(=O)CNC(=O)[C@H]([C@@H](C)CC)NC(=O)[C@H](CCCNC(=N)N)NC(=O)[C@H](CC(=O)O)NC(=O)[C@H](CC(C)C)NC(=O)[C@H](CCCCN)NC(=O)[C@H](CC(C)C)NC(=O)CNC(=O)[C@H](Cc2ccccc2)NC1=O [SEQ ID NO: 42] ({Palmitoyl-AEEA-AEEA-AEEA}-[Dap]GLSKGCFGLKLDRIGSQSGLGC-OH; disulfide 7-23; C-terminus assumed)				level at 2 h ([2]; sc, 1 mg/kg): 26.1 ng/mL; level at 6 h ([2]; sc, 1 mg/kg): 25 ng/mL; Plasma concentration of cGMP, 2 hr (cGMP): 110.21*** pmol/mL; Plasma concentration of cGMP, 6 hr (cGMP): 46.90** pmol/mL
CC[C@H](C)[C@@H]1NC(=O)[C@H](CCCNC(=N)N)NC(=O)[C@H](CC(=O)O)NC(=O)[C@H](CC(C)C)NC(=O)[C@H](CCCCN)NC(=O)[C@H](CC(C)C)NC(=O)CNC(=O)[C@H](Cc2ccccc2)NC(=O)[C@@H](NC(=O)CNC(=O)[C@H](CCCCN)NC(=O)[C@H](CO)NC(=O)[C@H](CC(C)C)NC(=O)CN)CSSC[C@@H](C(=O)O)NC(=O)CNC(=O)[C@H](CC(C)C)NC(=O)CNC(=O)[C@H](CO)NC(=O)[C@H](CCSC)NC(=O)[C@H](CO)NC(=O)CNC1=O [SEQ ID NO: 32, reference compound]				level at 2 h ([2]; mice, SC bolus 1.0 mg/kg (≤0.45 μmol/kg), 2 hr, ELISA, n = 3-5, read-out: Plasma concentration of respective Natriuretic Peptide, ANP, BNP, or CNP, 2 hr): 2.17 ng/mL; level at 6 h ([2]; mice, SC bolus 1.0 mg/kg (≤0.45 μmol/kg), 6 hr, ELISA, n = 3-5, read-out: Plasma concentration of respective Natriuretic Peptide, ANP, BNP, or CNP, 6 hr): 2.91 ng/mL; Plasma concentration of cGMP, 2 hr (cGMP): 8.7 pmol/mL; Plasma concentration of cGMP, 6 hr (cGMP): 9.5 pmol/mL
CCCCCCCCCCCCCCCC(=O)NCCOCCOCC(=O)NCCOCCOCC(=O)NCCOCCOCC(=O)N[C@@H](CN)C(=O)N[C@@H](CN)C(=O)N[C@@H](CN)C(=O)NCC(=O)N[C@@H](CC(C)C)C(=O)N[C@@H](CO)C(=O)N[C@@H](CCCCN)C(=O)NCC(=O)N[C@H]1CSSC[C@@H](C(=O)O)NC(=O)CNC(=O)[C@H](CC(C)C)NC(=O)CNC(=O)[C@H](CO)NC(=O)[C@H](CCC(N)=O)NC(=O)[C@H](CO)NC(=O)CNC(=O)[C@H]([C@@H](C)CC)NC(=O)[C@H](CCCNC(=N)N)NC(=O)[C@H](CC(=O)O)NC(=O)[C@H](CC(C)C)NC(=O)[C@H](CCCCN)NC(=O)[C@H](CC(C)C)NC(=O)CNC(=O)[C@H](Cc2ccccc2)NC1=O [SEQ ID NO: 43] ({Palmitoyl-AEEA-AEEA-AEEA}-[Dap][Dap][Dap]GLSKGCFGLKLDRIGSQSGLGC-OH; disulfide 9-25; C-terminus assumed)				level at 2 h ([2]; sc, 1 mg/kg): 29.2 ng/mL; level at 6 h ([2]; sc, 1 mg/kg): 16.8 ng/mL; Plasma concentration of cGMP, 2 hr (cGMP): 114.85**** pmol/mL; Plasma concentration of cGMP, 6 hr (cGMP): 93.39**** pmol/mL
